Assay results from US9243001B2, “Substituted benzene compounds” (Epizyme, Inc., priority 2013, dated 2016).

biological target: T1, wild-type EZH2 (PRC2 enzyme) (Homo sapiens, UniProt Q15910); assay: PRC2 enzyme assay on peptide substrates (wild-type EZH2); type: biochemical; settings: wild-type PRC2 enzyme 4 nM, H3K27me0 peptide substrate, 3H-SAM Flashplate; read-out: WT EZH2 IC50
T1 construct: made in house; host or cells: Spodoptera frugiperda (sf9) cells, baculovirus
Source text: General Materials. S-adenosylmethionine (SAM), S-adenosylhomocyteine (SAH), bicine, KCl, Tween20, dimethylsulfoxide (DMSO) and bovine skin gelatin (BSG) were purchased from Sigma-Aldrich at the highest level of purity possible. Dithiothreitol (DTT) was purchased from EMD Millipore. ^3H-SAM was purchased from American Radiolabeled Chemicals with a specific activity of 80 Ci/mmol. 384-well streptavidin Flashplates were purchased from PerkinElmer.
Substrates. Peptides representative of human histone H3 residues 21- 44 containing either an unmodified lysine 27 (H3K27me0) or dimethylated lysine 27 (H3K27me2) are synthesized with a C-terminal G(K-biotin) linker-affinity tag motif and a C-terminal amide cap by 21st Century Biochemicals. The peptides are high-performance liquid chromatography (HPLC) purified to greater than 95% purity and confirmed by liquid chromatography mass spectrometry (LC-MS). The sequences are listed below.
Recombinant PRC2 Enzymes. Human PRC2 enzymes were purified as 4-component enzyme complexes co-expressed in Spodoptera frugiperda (sf9) cells using a baculovirus expression system. The subunits expressed were wild-type EZH2 (NM_004456) or EZH2 Y641F, N, H, S or C mutants generated from the wild-type EZH2 construct, EED (NM_003797), Suz12 (NM_015355) and RbAp48 (NM_005610). The EED subunit contained an N-terminal FLAG tag that was used to purify the entire 4-component complex from sf9 cell lysates. The purity of the complexes met or exceeded 95% as determined by SDS-PAGE and Agilent Bioanalyzer analysis. Concentrations of enzyme stock concentrations (generally 0.3-1.0 mg/mL) was determined using a Bradford assay against a bovine serum albumin (BSA) standard.
General Procedure for PRC2 Enzyme Assays on Peptide Substrates. The assays were all performed in a buffer consisting of 20 mM bicine (pH=7.6), 0.5 mM DTT, 0.005% BSG and 0.002% Tween20, prepared on the day of use. Compounds in 100% DMSO (1 μL) were spotted into polypropylene 384-well V-bottom plates (Greiner) using a Platemate 2×3 outfitted with a 384-channel pipet head (Thermo). DMSO (1 μL) was added to columns 11, 12, 23, 24, rows A -H for the maximum signal control, and SAH, a known product and inhibitor of PRC2 (1 μL) was added to columns 11,12, 23, 24, rows I -P for the minimum signal control. A cocktail (40 μL) containing the wild-type PRC2 enzyme and H3K27me0 peptide or any of the Y641 mutant enzymes and H3K27me2 peptide was added by Multidrop Combi (Thermo). The compounds were allowed to incubate with PRC2 for 30 min at 25° C., then a cocktail (10 μL) containing a mixture of non-radioactive and ^3H-SAM was added to initiate the reaction (final volume=51 μL). In all cases, the final concentrations were as follows: wild-type or mutant PRC2 enzyme was 4 nM, SAH in the minimum signal control wells was 1 mM and the DMSO concentration was 1%. The assays were stopped by the addition of non-radioactive SAM (10 μL) to a final concentration of 600 μM, which dilutes the ^3H-SAM to a level where its incorporation into the peptide substrate is no longer detectable. 50 μL of the reaction in the 384-well polypropylene plate was then transferred to a 384-well Flashplate and the biotinylated peptides were allowed to bind to the streptavidin surface for at least 1 h before being washed three times with 0.1% Tween20 in a Biotek ELx405 plate washer. The plates were then read in a PerkinElmer TopCount platereader to measure the quantity of ^3H-labeled peptide bound to the Flashplate surface, measured as disintegrations per minute (dpm) or alternatively, referred to as counts per minute (cpm).
Where dpm=disintegrations per minute, cmpd=signal in assay well, and min and max are the respective minimum and maximum signal controls.
Where top and bottom are the normally allowed to float, but may be fixed at 100 or 0 respectively in a 3-parameter fit. The Hill Coefficient normally allowed to float but may also be fixed at 1 in a 3-parameter fit. […]

T1 sequence (Q15910 1-751 isoform Q15910-2): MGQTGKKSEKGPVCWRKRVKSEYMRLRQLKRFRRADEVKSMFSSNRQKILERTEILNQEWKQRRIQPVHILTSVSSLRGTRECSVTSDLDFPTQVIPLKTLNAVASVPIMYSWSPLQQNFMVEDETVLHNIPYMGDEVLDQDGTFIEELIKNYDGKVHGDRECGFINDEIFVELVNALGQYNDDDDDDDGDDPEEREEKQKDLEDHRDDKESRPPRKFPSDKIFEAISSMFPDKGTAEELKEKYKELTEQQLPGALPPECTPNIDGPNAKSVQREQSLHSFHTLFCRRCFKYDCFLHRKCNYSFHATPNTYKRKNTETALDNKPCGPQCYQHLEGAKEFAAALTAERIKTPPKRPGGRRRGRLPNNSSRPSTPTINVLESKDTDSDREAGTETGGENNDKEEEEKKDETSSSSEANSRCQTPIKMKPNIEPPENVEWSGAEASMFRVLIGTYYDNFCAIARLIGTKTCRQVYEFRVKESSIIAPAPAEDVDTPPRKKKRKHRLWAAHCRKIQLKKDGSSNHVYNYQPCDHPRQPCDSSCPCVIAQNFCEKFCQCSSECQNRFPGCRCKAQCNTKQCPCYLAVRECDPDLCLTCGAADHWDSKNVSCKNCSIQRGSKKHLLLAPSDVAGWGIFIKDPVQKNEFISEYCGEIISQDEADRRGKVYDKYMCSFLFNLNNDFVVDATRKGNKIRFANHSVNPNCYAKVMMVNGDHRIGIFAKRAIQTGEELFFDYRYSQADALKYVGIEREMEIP
T1 sequence (O75530 whole entry partner): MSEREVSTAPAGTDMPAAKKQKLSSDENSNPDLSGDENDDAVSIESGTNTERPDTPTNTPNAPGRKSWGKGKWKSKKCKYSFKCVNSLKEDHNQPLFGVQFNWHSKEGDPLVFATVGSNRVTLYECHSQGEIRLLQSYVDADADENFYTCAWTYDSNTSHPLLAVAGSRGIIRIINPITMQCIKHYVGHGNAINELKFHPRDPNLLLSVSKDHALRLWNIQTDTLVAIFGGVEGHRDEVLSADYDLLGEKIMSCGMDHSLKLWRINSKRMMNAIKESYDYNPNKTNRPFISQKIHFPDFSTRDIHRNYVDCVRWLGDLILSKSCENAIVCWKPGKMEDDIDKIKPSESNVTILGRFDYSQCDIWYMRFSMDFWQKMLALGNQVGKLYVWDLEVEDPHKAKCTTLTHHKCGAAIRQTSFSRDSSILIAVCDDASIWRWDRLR
T1 sequence (Q15022 whole entry partner): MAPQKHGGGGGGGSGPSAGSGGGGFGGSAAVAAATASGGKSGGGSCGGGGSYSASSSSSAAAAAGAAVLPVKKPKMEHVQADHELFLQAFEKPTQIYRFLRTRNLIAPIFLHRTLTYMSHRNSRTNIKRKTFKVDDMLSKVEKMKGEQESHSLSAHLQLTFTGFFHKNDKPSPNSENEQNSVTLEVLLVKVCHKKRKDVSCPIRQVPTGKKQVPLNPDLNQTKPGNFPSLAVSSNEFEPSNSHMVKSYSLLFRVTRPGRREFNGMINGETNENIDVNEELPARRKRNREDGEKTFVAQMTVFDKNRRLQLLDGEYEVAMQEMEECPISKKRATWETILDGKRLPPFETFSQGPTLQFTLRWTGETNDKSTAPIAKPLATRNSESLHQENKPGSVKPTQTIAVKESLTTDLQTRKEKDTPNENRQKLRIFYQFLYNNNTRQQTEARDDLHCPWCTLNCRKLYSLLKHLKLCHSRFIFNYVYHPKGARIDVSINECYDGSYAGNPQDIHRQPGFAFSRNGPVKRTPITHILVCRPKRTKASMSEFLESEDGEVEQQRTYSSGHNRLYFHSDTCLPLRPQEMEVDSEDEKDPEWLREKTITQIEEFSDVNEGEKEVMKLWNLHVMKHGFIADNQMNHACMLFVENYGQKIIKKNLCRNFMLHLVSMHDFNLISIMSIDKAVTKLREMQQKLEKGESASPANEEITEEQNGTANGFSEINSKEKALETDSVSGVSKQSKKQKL
T1 sequence (Q09028 whole entry partner): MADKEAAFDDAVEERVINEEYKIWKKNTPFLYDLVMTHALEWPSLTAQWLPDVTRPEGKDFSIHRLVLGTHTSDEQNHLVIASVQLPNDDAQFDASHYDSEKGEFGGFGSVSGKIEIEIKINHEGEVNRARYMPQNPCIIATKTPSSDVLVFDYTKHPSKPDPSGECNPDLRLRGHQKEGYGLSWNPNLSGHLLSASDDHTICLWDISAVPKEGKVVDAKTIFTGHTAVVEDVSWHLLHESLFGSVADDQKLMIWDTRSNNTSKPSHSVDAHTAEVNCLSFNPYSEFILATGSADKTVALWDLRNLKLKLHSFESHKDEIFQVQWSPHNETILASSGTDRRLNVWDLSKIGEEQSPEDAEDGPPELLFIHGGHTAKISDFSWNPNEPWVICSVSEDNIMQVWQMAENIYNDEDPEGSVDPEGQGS

IC50 [µM] | Structure (SMILES)
14.8 | CCN(c1cc(Cl)cc(C(=O)NCc2ccn(C)n2)c1C)C1CCOCC1 [Compound 28, 5-chloro-3-(ethyl(tetrahydro-2H-pyran-4-yl)amino)-2-methyl-N-((1-methyl-1H-pyrazol-3-yl)methyl)benzamide]
> 50 | CCN(c1cc(Cl)cc(C(=O)NCCc2nccs2)c1C)[C@H]1CC[C@H](N(C)C)CC1 [Compound 12, 5-chloro-3-(((trans)-4-(dimethylamino)cyclohexyl)(ethyl)amino)-2-methyl-N-(2-(thiazol-2-yl)ethyl)benzamide]
23.7 | CCN(c1cc(Cl)cc(C(=O)NCc2nccn2C)c1C)C1CCOCC1 [Compound 23, 5-chloro-3-(ethyl(tetrahydro-2H-pyran-4-yl)amino)-2-methyl-N-((1-methyl-1H-imidazol-2-yl)methyl)benzamide]
> 50 | CCN(c1cc(Cl)cc(C(=O)NCc2nccs2)c1C)C1CCOCC1 [Compound 24, 5-chloro-3-(ethyl(tetrahydro-2H-pyran-4-yl)amino)-2-methyl-N-(thiazol-2-ylmethyl)benzamide]
5.13 | CCN(c1cc(Cl)cc(C(=O)NCc2ccc(C)c3cn(C)nc23)c1C)C1CCC(N(C)C)CC1 (stereo not shown) [Compound 4, 5-chloro-N-((2,4-dimethyl-2H-indazol-7-yl)methyl)-3-(((1s,4s)-4-(dimethylamino)cyclohexyl)(ethyl)amino)-2-methylbenzamide]
3.11 | CCN(c1cc(Cl)cc(C(=O)NCc2nccn2C)c1C)[C@H]1CC[C@H](N(C)C)CC1 [Compound 16, 5-chloro-3-(((tans)-4-(dimethylamino)cyclohexyl)(ethyl)amino)-2-methyl-N-((1-methyl-1H-imidazol-2-yl)methyl)benzamide]
> 10 | CCN(c1cc(Cl)cc(C(=O)NCc2nc3ccccc3[nH]2)c1C)[C@H]1CC[C@H](N(C)C)CC1 [Compound 19, N-((1H-benzo[d]imidazol-2-yl)methyl)-5-chloro-3-(((1r,4r)-4-(dimethylamino)cyclohexyl)(ethyl)amino)-2-methylbenzamide]
> 50 | CCN(c1cc(Cl)cc(C(=O)NCc2cncn2C)c1C)C1CCOCC1 [Compound 22, 5-chloro-3-(ethyl(tetrahydro-2H-pyran-4-yl)amino)-2-methyl-N-((1-methyl-1H-imidazol-5-yl)methyl)benzamide]
> 10 | CCN(c1cc(Cl)cc(C(=O)NCc2nccn2C(C)C)c1C)[C@H]1CC[C@H](N(C)C)CC1 [Compound 18, 5-chloro-3-(((trans)-4-(dimethylamino)cyclohexyl)(ethyl)amino)-N-((1-isopropyl-1H-imidazol-2-yl)methyl)-2-methylbenzamide]
> 10 | CCN(c1cc(Cl)cc(C(=O)NCc2c(C)ccc3cn(C)nc23)c1C)[C@H]1CC[C@H](N(C)C)CC1 [Compound 5, 5-chloro-N-((2,6-dimethyl-2H-indazol-7-yl)methyl)-3-(((trans)-4-(dimethylamino)cyclohexyl)(ethyl)amino)-2-methylbenzamide]
6.55 | CCN(c1cc(Cl)cc(C(=O)NCCc2nc3ccccc3o2)c1C)[C@H]1CC[C@H](N(C)C)CC1 [Compound 14, N-(2-(benzo[d]oxazol-2-yl)ethyl)-5-chloro-3-(((trans)-4-(dimethylamino)cyclohexyl)(ethyl)amino)-2-methylbenzamide]
> 10 | CCN(c1cc(Cl)cc(C(=O)NCc2cccc3cn(C)nc23)c1C)[C@H]1CC[C@H](N(C)C)CC1 [Compound 6, 5-chloro-3-(((trans)-4-(dimethylamino)cyclohexyl)(ethyl)amino)-2-methyl-N-((2-methyl-2H-indazol-7-yl)methyl)benzamide]
> 50 | CCN(c1cc(Cl)cc(C(=O)NCc2cc(C)on2)c1C)C1CCOCC1 [Compound 29, 5-chloro-3-(ethyl(tetrahydro-2H-pyran-4-yl)amino)-2-methyl-N-((5-methylisoxazol-3-yl)methyl)benzamide]
